Target: T1, ALK (baculovirus expressed human ALK kinase domain F1098-K1410) (Homo sapiens, UniProt Q9UM73)
T1 construct: human ALK kinase domain F1098-K1410; made in house
Assay: biochemical
Conditions: 1 μM ATP, 4 μM poly-AEKY, 12 nM ALK, 2 hours at ambient temperature; read-out: ALK IC50
Protocol: Kinase activity and compound inhibition are investigated using one or more of the three assay formats described below. The ATP concentrations for each assay are selected to be close to the Michaelis-Menten constant (KM) for each individual kinase. Dose-response experiments are performed at 10 different inhibitor concentrations in a 384-well plate format. […] Y=Min+(Max−Min)/(1+(X/IC50)^H) Equation (2) Luciferase-Coupled Chemiluminescent Kinase Assay
ALK biochemical activity was assessed using a Luciferase-Coupled Chemiluminescent Kinase assay (LCCA) format in which kinase activity was measured as the percent ATP remaining following the kinase reaction. ATP remaining after the kinase reaction was detected by luciferase-luciferin-coupled chemiluminescence. […] The mixture was incubated at ambient temperature for 2 hours after which 20 μL luciferase-luciferin mix was added and the chemiluminescent signal read using a Wallac Victor^2 reader. […] Consumption of ATP by ALK can be quantified and utilized as a measure of inhibition of ALK activity by compounds described herein. By employing serial dilutions of compounds to be tested, the ability of test compounds to inhibit ALK activity can be determined.

T1 sequence (Q9UM73 1098-1410): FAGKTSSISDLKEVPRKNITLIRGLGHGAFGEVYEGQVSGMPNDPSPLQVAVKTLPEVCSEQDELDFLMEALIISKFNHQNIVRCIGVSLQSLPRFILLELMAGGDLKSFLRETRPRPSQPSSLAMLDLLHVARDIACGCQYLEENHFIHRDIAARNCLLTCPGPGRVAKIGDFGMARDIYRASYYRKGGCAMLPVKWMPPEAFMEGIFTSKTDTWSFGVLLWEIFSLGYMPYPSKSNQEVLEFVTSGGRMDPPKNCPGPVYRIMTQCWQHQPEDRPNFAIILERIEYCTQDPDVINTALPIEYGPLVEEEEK

| IC50 [µM] | SMILES |
| --- | --- |
| > 2 | O=C(COc1ccc(OC(F)(F)F)cc1)NCc1nc(C(=O)NCCc2cccc(Cl)c2)c[nH]1 [Entry 306, N-[2-(3-chlorophenyl)ethyl]-2-({[({4-[(trifluoromethyl)oxy]phenyl}oxy)acetyl]amino}methyl)-1H-imidazole-4-carboxamide] |
| 0.05 to 0.5 | O=C(COc1ccc(OC(F)(F)F)cc1)NCc1nc(C(=O)NCCc2ccccc2Cl)cs1 [Entry 104, N-[2-(2-chlorophenyl)ethyl]-2-({[({4-[(trifluoromethyl)oxy]phenyl}oxy)acetyl]amino}methyl)-1,3-thiazole-4-carboxamide] |
| 0.05 to 0.5 | COc1cccc(CNC(=O)c2csc(CNC(=O)COc3ccc(OC(F)(F)F)cc3)n2)c1 [Entry 154, N-{[3-(methyloxy)phenyl]methyl}-2-({[({4-[(trifluoromethyl)oxy]phenyl}oxy)acetyl]amino}methyl)-1,3-thiazole-4-carboxamide] |
| 0.05 to 0.5 | O=C(COc1ccc(OC(F)(F)F)cc1)NCc1nc(C(=O)N[C@@H]2CCCc3ccccc32)cs1 [Entry 165, N-[(1R)-1,2,3,4-tetrahydronaphthalen-1-yl]-2-({[({4-[(trifluoromethyl)oxy]phenyl}oxy)acetyl]amino}methyl)-1,3-thiazole-4-carboxamide] |
| 0.5 to 2 | O=C(COc1ccc(OC(F)(F)F)cc1)NCc1nc(C(=O)NC2CCCc3ccccc32)co1 (stereo not drawn) [Entry 293, N-(1,2,3,4-tetrahydronaphthalen-1-yl)-2-({[({4-[(trifluoromethyl)oxy]phenyl}oxy)acetyl]amino}methyl)-1,3-oxazole-4-carboxamide] |
| 0.05 to 0.5 | O=C(COc1ccc(OC(F)(F)F)cc1)NCc1nc(C(=O)NCCc2cccnc2)cs1 [Entry 51, N-(2-pyridin-3-ylethyl)-2-({[({4-[(trifluoromethyl)oxy]phenyl}oxy)acetyl]amino}methyl)-1,3-thiazole-4-carboxamide] |
| 0.05 to 0.5 | Cc1ccc([C@H](C)NC(=O)c2csc(CNC(=O)COc3ccc(OC(F)(F)F)cc3)n2)cc1 [Entry 162, N-[(1S)-1-(4-methylphenyl)ethyl]-2-({[({4-[(trifluoromethyl)oxy]phenyl}oxy)acetyl]amino}methyl)-1,3-thiazole-4-carboxamide] |
| 0.05 to 0.5 | COc1ccc(OC)c(CNC(=O)c2csc(CNC(=O)COc3ccc(OC(F)(F)F)cc3)n2)c1 [Entry 112, N-{[2,5-bis(methyloxy)phenyl]methyl}-2-({[({4-[(trifluoromethyl)oxy]phenyl}oxy)acetyl]amino}methyl)-1,3-thiazole-4-carboxamide] |
| 0.5 to 2 | Cc1ccc(CCNC(=O)c2coc(CNC(=O)COc3ccc(OC(F)(F)F)cc3)n2)cc1 [Entry 225, N-[2-(4-methylphenyl)ethyl]-2-({[({4-[(trifluoromethyl)oxy]phenyl}oxy)acetyl]amino}methyl)-1,3-oxazole-4-carboxamide] |
| 0.05 to 0.5 | O=C(COc1ccc(OC(F)(F)F)cc1)NCc1nc(C(=O)NCc2cccc(F)c2F)cs1 [Entry 116, N-[(2,3-difluorophenyl)methyl]-2-({[({4-[(trifluoromethyl)oxy]phenyl}oxy)acetyl]amino}methyl)-1,3-thiazole-4-carboxamide] |
| 0.05 to 0.5 | CSc1ccccc1CNC(=O)c1coc(CNC(=O)COc2ccc(OC(F)(F)F)cc2)n1 [Entry 186, N-{[2-(methylthio)phenyl]methyl}-2-({[({4-[(trifluoromethyl)oxy]phenyl}oxy)acetyl]amino}methyl)-1,3-oxazole-4-carboxamide] |
| 0.5 to 2 | O=C(COc1ccc(OC(F)(F)F)cc1)NCc1nc(C(=O)NCc2cccnc2)cs1 [Entry 241, N-(pyridin-3-ylmethyl)-2-({[({4-[(trifluoromethyl)oxy]phenyl}oxy)acetyl]amino}methyl)-1,3-thiazole-4-carboxamide] |
| 0.05 to 0.5 | CN(C)Cc1ccc(CSCCNC(=O)c2csc(CNC(=O)COc3ccc(OC(F)(F)F)cc3)n2)o1 [Entry 130, N-{2-[({5-[(dimethylamino)methyl]furan-2-yl}methyl)thio]ethyl}-2-({[({4-[(trifluoromethyl)oxy]phenyl}oxy)acetyl]amino}methyl)-1,3-thiazole-4-carboxamide] |
| > 2 | O=C(COc1ccc(OC(F)(F)F)cc1)NCc1cc(C(=O)NCCc2cccc(Cl)c2)no1 [Entry 299, N-[2-(3-chlorophenyl)ethyl]-5-({[({4-[(trifluoromethyl)oxy]phenyl}oxy)acetyl]amino}methyl)isoxazole-3-carboxamide] |
| 0.05 to 0.5 | O=C(COc1ccc(OC(F)(F)F)cc1)NCc1nc(C(=O)NCCc2ccc(Cl)c(Cl)c2)cs1 [Entry 44, N-[2-(3,4-dichlorophenyl)ethyl]-2-({[({4-[(trifluoromethyl)oxy]phenyl}oxy)acetyl]amino}methyl)-1,3-thiazole-4-carboxamide] |
| 0.05 to 0.5 | O=C(COc1ccc(OC(F)(F)F)cc1)NCc1nc(C(=O)NCc2cccc(C(F)(F)F)c2)cs1 [Entry 156, 2-({[({4-[(trifluoromethyl)oxy]phenyl}oxy)acetyl]amino}methyl)-N-{[3-(trifluoromethyl)phenyl]methyl}-1,3-thiazole-4-carboxamide] |
| 0.05 to 0.5 | COc1ccc(OCCNC(=O)c2csc(CNC(=O)COc3ccc(OC(F)(F)F)cc3)n2)cc1 [Entry 81, N-(2-{[4-(methyloxy)phenyl]oxy}ethyl)-2-({[({4-[(trifluoromethyl)oxy]phenyl}oxy)acetyl]amino}methyl)-1,3-thiazole-4-carboxamide] |
| < 0.05 | Cc1cccc(CCNC(=O)c2csc(CNC(=O)COc3ccc(OC(F)(F)F)cc3)n2)c1 [Entry 21, N-[2-(3-methylphenyl)ethyl]-2-({[({4-[(trifluoromethyl)oxy]phenyl}oxy)acetyl]amino}methyl)-1,3-thiazole-4-carboxamide] |

The remaining lines, values behind:

| SMILES | IC50 [µM] |
| --- | --- |
| CC(C)(C)OC(=O)NC1CCN(C(=O)c2csc(CNC(=O)COc3ccc(OC(F)(F)F)cc3)n2)C1 (stereo not drawn) [Entry 278, 1,1-dimethylethyl (1-{[2-({[({4-[(trifluoromethyl)oxy]phenyl}oxy)acetyl]amino}methyl)-1,3-thiazol-4-yl]carbonyl}pyrrolidin-3-yl)carbamate] | 0.5 to 2 |
| O=C(NCc1nc(C(=O)NCCc2cccc(Cl)c2)cs1)N[C@@H]1C[C@H]1c1ccccc1 [Entry 217, N-[2-(3-chlorophenyl)ethyl]-2-{[({[(1R,2S)-2-phenylcyclopropyl]amino}carbonyl)amino]methyl}-1,3-thiazole-4-carboxamide] | 0.05 to 0.5 |
| CCC(CC)NC(=O)c1csc(CNC(=O)COc2ccc(OC(F)(F)F)cc2)n1 [Entry 171, N-(1-ethylpropyl)-2-({[({4-[(trifluoromethyl)oxy]phenyl}oxy)acetyl]amino}methyl)-1,3-thiazole-4-carboxamide] | 0.05 to 0.5 |
| O=C(CNC(=O)c1ccc([N+](=O)[O-])cc1)NCc1nc(C(=O)NCCc2cccc(Cl)c2)cs1 [Entry 136, N-[2-(3-chlorophenyl)ethyl]-2-[({N-[(4-nitrophenyl)carbonyl]glycyl}amino)methyl]-1,3-thiazole-4-carboxamide] | 0.05 to 0.5 |
| CCc1ccc(NC(=O)NCc2nc(C(=O)NCc3ccccc3OC)cs2)cc1 [Entry 110, 2-[({[(4-ethylphenyl)amino]carbonyl}amino)methyl]-N-{[2-(methyloxy)phenyl]methyl}-1,3-thiazole-4-carboxamide] | 0.05 to 0.5 |
| CC1CCCN(C(=O)c2csc(CNC(=O)COc3ccc(OC(F)(F)F)cc3)n2)C1 (stereo not drawn) [Entry 289, N-({4-[(3-methylpiperidin-1-yl)carbonyl]-1,3-thiazol-2-yl}methyl)-2-({4-[(trifluoromethyl)oxy]phenyl}oxy)acetamide] | 0.5 to 2 |
| COc1cccc(CNC(=O)c2csc(CNC(=O)Cc3ccc4ccccc4c3)n2)c1OC [Entry 256, N-{[2,3-bis(methyloxy)phenyl]methyl}-2-{[(naphthalen-2-ylacetyl)amino]methyl}-1,3-thiazole-4-carboxamide] | 0.5 to 2 |
| COc1cccc(CNC(=O)c2csc(CNC(=O)COc3ccc(C(C)C)cc3)n2)c1OC [Entry 125, N-{[2,3-bis(methyloxy)phenyl]methyl}-2-{[({[4-(1-methylethyl)phenyl]oxy}acetyl)amino]methyl}-1,3-thiazole-4-carboxamide] | 0.05 to 0.5 |
| O=C(NCCc1ccccc1F)c1csc(CNC(=O)c2cccnc2Oc2ccc(Cl)cc2)n1 [Entry 129, 2-[(4-chlorophenyl)oxy]-N-{[4-({[2-(2-fluorophenyl)ethyl]amino}carbonyl)-1,3-thiazol-2-yl]methyl}pyridine-3-carboxamide] | 0.05 to 0.5 |
| C[C@@H]1[C@H]2C[C@@H](C[C@H]1NC(=O)c1csc(CNC(=O)COc3ccc(OC(F)(F)F)cc3)n1)C2(C)C [Entry 88, 2-({[({4-[(trifluoromethyl)oxy]phenyl}oxy)acetyl]amino}methyl)-N-[(1R,2R,3R,5S)-2,6,6-trimethylbicyclo[3.1.1]hept-3-yl]-1,3-thiazole-4-carboxamide] | 0.05 to 0.5 |
| COc1cccc(CNC(=O)c2csc(CN)n2)c1OC [Entry 303, 2-(aminomethyl)-N-{[2,3-bis(methyloxy)phenyl]methyl}-1,3-thiazole-4-carboxamide] | > 2 |
| CC(C)(C)OC(=O)NCCCCCNC(=O)c1csc(CNC(=O)COc2ccc(OC(F)(F)F)cc2)n1 [Entry 123, 1,1-dimethylethyl [5-({[2-({[({4-[(trifluoromethyl)oxy]phenyl}oxy)acetyl]amino}methyl)-1,3-thiazol-4-yl]carbonyl}amino)pentyl]carbamate] | 0.05 to 0.5 |
